From patent US7220784B2, “Substituted stilbenes and their reactions” (priority 2000, dated 2007)
pIC50: −log10 of the molar value. Read-outs that look alike come from different tables or passages of the source.

Tests used:
[1] = test system: P388 murine leukaemia cell line; experiment: Cytotoxicity/growth inhibition assay (MTT), P388; format: cell-based; settings: MTT
Procedure, shortened: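 Growth inhibition of P388 murine and K562 human leukaemia cells measured by MTT assay.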

[2] = test system: A2780; experiment: Cytotoxicity/growth inhibition assay (MTT), A2780; format: cell-based; settings: read-out: A2780 IC50
Procedure, shortened: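 MTT cytotoxicity/growth-inhibition assay in human cell lines including A2780, A2780/ADR, H460 and HUVEC.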

[3] = test system: K562 cells; experiment: In situ ultra violet irradiation of dosed K562 cells, IC50; format: cell-based, human; settings: Homo sapiens, read-out: IC50 K562

Compound `COc1ccc(C=Cc2cc(OC)c(OC)c(OC)c2)cc1F` [Compound 97-64H] has a pIC50 [1] of 9.31 and a pIC50 [2] of 8.44.

Compound `COc1ccc(/C=C/c2cc(OC)c(OC)c(OC)c2)cc1O` [trans-CA-4, trans-combretastatin A-4] has a pIC50 ([3]; K562, 0 h, in situ UV 0 mins (Table 6)) of 5.92, a pIC50 ([3]; K562, 1 min, in situ UV 1 mins (Table 6)) of 8.44 and a pIC50 ([3]; K562, 2 min, in situ UV 2 mins (Table 6)) of 8.54. It also gave a pIC50 ([3]; K562, 0.05 h, in situ UV 3 mins (Table 6)) of 8.77, a pIC50 ([3]; K562, 4 min, in situ UV 4 mins (Table 6)) of 8.36 and a pIC50 ([3]; K562, 5 min, in situ UV 5 mins (Table 6)) of 8.57. It also gave a pIC50 ([3]; K562, 0.1 h, in situ UV 6 mins (Table 6)) of 8.54, a pIC50 ([3]; K562, 7 min, in situ UV 7 mins (Table 6)) of 8.72 and a pIC50 ([3]; K562, 8 min, in situ UV 8 mins (Table 6)) of 8.52. It also gave a pIC50 ([3]; K562, 0.15 h, in situ UV 9 mins (Table 6)) of 8.60, a pIC50 ([3]; K562, 12.5 min, in situ UV 12.5 mins (Table 6)) of 8.62 and a pIC50 ([3]; K562, 0.25 h, in situ UV 15.0 mins (Table 6)) of 8.70. The pIC50 ([3]; K562, 17.5 min, in situ UV 17.5 mins (Table 6)) was 8.77, the pIC50 ([3]; K562, 20 min, in situ UV 20.0 mins (Table 6)) was 8.57 and the pIC50 ([3]; K562, in situ UV, repeated experiment, 0 secs (Table 7)) was 6.24. For the same compound, the pIC50 ([3]; K562, in situ UV, repeated experiment, 5 secs (Table 7)) was 7.46, the pIC50 ([3]; K562, in situ UV, repeated experiment, 10 secs (Table 7)) was 7.40 and the pIC50 ([3]; K562, in situ UV, repeated experiment, 15 secs (Table 7)) was 7.70. For the same compound, the pIC50 ([3]; K562, in situ UV, repeated experiment, 20 secs (Table 7)) was 7.74, the pIC50 ([3]; K562, in situ UV, repeated experiment, 25 secs (Table 7)) was 7.77 and the pIC50 ([3]; K562, in situ UV, repeated experiment, 30 secs (Table 7)) was 7.82. The pIC50 ([3]; K562, in situ UV, repeated experiment, 35 secs (Table 7)) was 7.96, the pIC50 ([3]; K562, in situ UV, repeated experiment, 40 secs (Table 7)) was 7.96 and the pIC50 ([3]; K562, in situ UV, repeated experiment, 45 secs (Table 7)) was 8.05. For the same compound, the pIC50 ([3]; K562, in situ UV, repeated experiment, 50 secs (Table 7)) was 8.05, the pIC50 ([3]; K562, in situ UV, repeated experiment, 55 secs (Table 7)) was 8.05 and the pIC50 ([3]; K562, in situ UV, repeated experiment, 60 secs (Table 7)) was 8.10.
